SMILES strings stand for the structures. pIC50: −log10 of the molar value.

For one compound, IC50 results are on record in article PMC6714936 (Clinical and Applied Thrombosis/Hemostasis, 2019).

The target in this experiment is factor Xa (Bos taurus, UniProt P00743). Nature of the experiment: kinetic amidolytic. Format: biochemical.
factor Xa, sequence (P00743 41-180): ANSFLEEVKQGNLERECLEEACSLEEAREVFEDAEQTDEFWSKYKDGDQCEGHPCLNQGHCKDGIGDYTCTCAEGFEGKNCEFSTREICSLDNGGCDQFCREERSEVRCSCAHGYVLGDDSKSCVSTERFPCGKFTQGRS
factor Xa, sequence (P00743 234-492): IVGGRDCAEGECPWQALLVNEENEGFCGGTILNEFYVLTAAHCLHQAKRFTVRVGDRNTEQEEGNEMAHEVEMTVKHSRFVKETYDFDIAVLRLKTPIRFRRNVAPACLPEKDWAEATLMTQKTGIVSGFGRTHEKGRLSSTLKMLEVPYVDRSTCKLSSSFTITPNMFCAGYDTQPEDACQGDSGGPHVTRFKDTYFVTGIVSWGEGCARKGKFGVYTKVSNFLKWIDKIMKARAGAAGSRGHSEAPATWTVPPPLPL

The term pIC50 denotes the IC50 on a negative log10 scale, so that one unit is a factor of ten. `COc1ccc(NC(=O)c2ccc(C(=N)N(C)C)cc2)c(C(=O)Nc2ccc(Cl)cn2)c1` [Betrixaban] showed a pIC50 of 5.54.
